Test results as given in US20230255976A1, “Novel Compounds for the Treatment, Alleviation or Prevention of Disorders Associated with Tau Aggregates” (AC Immune SA, priority 2018, published 2023).

What was measured:
[1] = target: T1, Tau K18 fragment aggregates (amino acids 244 to 372 of human Tau441) (Homo sapiens, UniProt P10636); assay: Tau K18 disaggregation assay by ThT; assay type: biochemical; details: 2 μM K18 aggregates, compounds 160 to 0.04 μM, 30 min RT, ThT fluorescence
T1 construct: encompassing amino acids 244 to 372 of the longest isoform (2N4R) of human Tau441; host or cells: bacteria
Method: Compounds were dissolved in anhydrous dimethyl sulfoxide (DMSO, Sigma-Aldrich) to reach a concentration of 10 mM. K18 aggregates and serial dilutions of compounds were mixed together in PBS (volume 50 μL) to a final concentration of 2 μM of K18 aggregates and from 160 to 0.04 μM of compounds. The mixture was incubated for 30 minutes at room temperature (RT), then 40 μL of this mixture were transferred into a black 384-well plate assay (Perkin-Elmer) and mixed with 10 μL of 100 μM ThT in 250 mM glycine (both from Sigma-Aldrich) in PBS. Fluorescence (relative fluorescence units; RFU) was measured in monoplicate or duplicate on a Tecan reader (excitation: 440 nm; emission: 485 nm). Percentage of K18 disaggregation was then calculated and half maximal effective concentration (EC50) was determined using GraphPad Prism version 5 (GraphPad Software) assuming a one-binding site fitting model.

[2] = tested on: human neuroblastoma cell line overexpressing full-length human Tau carrying the P301L mutation; assay: Reduction of intracellular Tau aggregation (AlphaLISA); assay type: cell-based; details: compound at 5 μM, 24 h; aggregated Tau normalized to total Tau, relative to DMSO-treated cells
Method: A human neuroblastoma cell line overexpressing the full-length form of human Tau carrying the P301 L mutation was cultured in complete medium [DMEM-F12 4.5 g/L Glutamax (Invitrogen), 15% FBS (Biochrom), 1% Peni/Strep (Invitrogen) supplemented with 2.5 μg/ml of G418 (Sigma-Aldrich) selection antibiotic]. The day before the experiment 5×10^5 cells/well were plated in a 6 well plate in 3 mL of complete medium. The next day, cells were incubated with DMSO or a compound of the present invention at 5 μM for additional 24 h at 37° C. […]
Phosphorylated, aggregated, and total Tau were quantified by AlphaLisa using the following antibody pairs: • HT7-Acceptor beads+biotin (BT)-Tau13-Donor beads: Total Tau • HT7-Acceptor beads+biotin (BT)-HT7-Donor beads: Aggregated human Tau […]
After incubation of this mixture at room temperature for 1 h, 25 μL of Streptavidin Donor beads (Perkin Elmer) at 25 μg/mL were added in the dark. Plates were analyzed after 30 min incubation using the EnSpire Alpha instrument and EnSpire Workstation version 3.00. Data for aggregated Tau were normalized to total Tau and then expressed as percentage of the DMSO-treated cells.

T1 sequence (P10636 561-689): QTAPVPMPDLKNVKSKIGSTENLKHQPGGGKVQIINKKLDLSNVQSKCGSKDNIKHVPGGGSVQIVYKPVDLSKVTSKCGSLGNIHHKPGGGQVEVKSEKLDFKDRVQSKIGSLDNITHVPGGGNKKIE

Work on `Fc1ccc2[nH]c3c(c2c1)CC1CCC3N1c1ccc(N2CCOCC2)cn1` (centres unmarked) [Example 47] yielded an EC50 [1] of 10 to 25 µM.
In the case of `c1ccc2c3c([nH]c2c1)CN(c1ccc(N2CCOCC2)nc1)CC3` [Example 44], the “% Reduction of intracellular Tau aggregation” value [2] is reported as “+++ (+++ % >50)”.
